Data on 33 compounds can be found in patent US20030187007A1, “Inhibitors of protein kinase for the treatment of disease” (priority 2001, published 2003).

What all share (format): biochemical
One test concerns the target CDK5 complexed with p25 (Homo sapiens, UniProt Q00535). As to the kind of experiment: Cyclin dependent kinase activity assay, phosphorylation of synthetic peptide PKTPKKAKKLRRR
As to conditions: CDK5 complexed with p25, 0.1 mM ATP; read-out: CDK 5 Activity*. As for the experimental part: (§1) The assay of cyclin dependent kinase activity was determined by monitoring the phosphorylation of a synthetic peptide, PKTPKKAKKLRRR. The assay mixture contained 0.1 mM cold ATP, ^33P-γ-ATP (2000-4000 cpm/μL), 0.1 mM peptide, 1 mM DTT, and 10 mM MgCl2 in 100 mM HEPES buffer pH 7.4. The assay mixture, along with inhibitor and CDK enzyme (0.3-0.4 U/mL; either CDK5 complexed with p25, CDK2 complexed with complexed with cyclin A), was mixed together in a microtiter plate in a final volume of 40 μL, sealed and incubated for 2 hours at 30° C. Following incubation, a 15 μL aliquot was added to a Whatman P81 filtration plate containing 100 μL 0.5% phosphoric acid. This mixture was allowed to stand for 5 minutes prior to filtration on a vacuum manifold. The filter plate was washed with 5 successive additions of 300 μL 0.5% phosphoric acid. The filtration plate was air dried for 10 minutes before sealing the bottom. After addition of scintillation fluid to the sealed plate, phosphorylated peptide was quantified in a scintillation counter.

In test [1] the target is CDK2 complexed with cyclin A (Homo sapiens, UniProt P24941). The description is as above. Conditions: 0.1 mM ATP, read-out: CDK 2 Activity*. As to the method:
as §1

Another test addresses KDR (Homo sapiens, UniProt P35968). As to the kind of experiment: Enzyme assay for  (KDR), IC50 determination. Conditions: 50 nM KDR, 500 μM ATP. As for the experimental part: Enzyme assays for IC50 determinations were performed in 96-well titer plates, in a total reaction volume of 50 μL. Each reaction contained 1.5 μL of appropriate dilutions of inhibitor, 50 mM Hepes, pH 7.4, 1 mM DTT, 10 mM magnesium chloride, 2 mM phospho-poly(E4Y) (Sigma Chemical Company), 500 μM unlabeled ATP, 0.0025 μM [^33P]ATP (Amersham Pharmacia Biotech), and 50 nM KDR. All components except KDR were added to the wells, and the reaction was started by the addition of the enzyme. The reactions were mixed and incubated at room temperature for 1 hr, after which the reactions were quenched by the addition of 50 μL of 8% phosphoric acid. At this point, 90 μL aliquots of the samples were applied to positively charged DEAE 96-well filter plates (Millipore Corporation MADENOB10). The plates were incubated for 30 min at room temperature. The samples were aspirated and the wells were washed 3 times with 200 μL of 0.5% phosphoric acid. To each well, 50 μL of scintillation cocktail was added and counted for 60 sec in a TopCount microplate scintillation counter (Packard Instrument Company). The concentration of a compound that inhibited the activity of KDR by 50% (IC50) was determined based its inhibition curve.

Chain of KDR (P35968 20-1356): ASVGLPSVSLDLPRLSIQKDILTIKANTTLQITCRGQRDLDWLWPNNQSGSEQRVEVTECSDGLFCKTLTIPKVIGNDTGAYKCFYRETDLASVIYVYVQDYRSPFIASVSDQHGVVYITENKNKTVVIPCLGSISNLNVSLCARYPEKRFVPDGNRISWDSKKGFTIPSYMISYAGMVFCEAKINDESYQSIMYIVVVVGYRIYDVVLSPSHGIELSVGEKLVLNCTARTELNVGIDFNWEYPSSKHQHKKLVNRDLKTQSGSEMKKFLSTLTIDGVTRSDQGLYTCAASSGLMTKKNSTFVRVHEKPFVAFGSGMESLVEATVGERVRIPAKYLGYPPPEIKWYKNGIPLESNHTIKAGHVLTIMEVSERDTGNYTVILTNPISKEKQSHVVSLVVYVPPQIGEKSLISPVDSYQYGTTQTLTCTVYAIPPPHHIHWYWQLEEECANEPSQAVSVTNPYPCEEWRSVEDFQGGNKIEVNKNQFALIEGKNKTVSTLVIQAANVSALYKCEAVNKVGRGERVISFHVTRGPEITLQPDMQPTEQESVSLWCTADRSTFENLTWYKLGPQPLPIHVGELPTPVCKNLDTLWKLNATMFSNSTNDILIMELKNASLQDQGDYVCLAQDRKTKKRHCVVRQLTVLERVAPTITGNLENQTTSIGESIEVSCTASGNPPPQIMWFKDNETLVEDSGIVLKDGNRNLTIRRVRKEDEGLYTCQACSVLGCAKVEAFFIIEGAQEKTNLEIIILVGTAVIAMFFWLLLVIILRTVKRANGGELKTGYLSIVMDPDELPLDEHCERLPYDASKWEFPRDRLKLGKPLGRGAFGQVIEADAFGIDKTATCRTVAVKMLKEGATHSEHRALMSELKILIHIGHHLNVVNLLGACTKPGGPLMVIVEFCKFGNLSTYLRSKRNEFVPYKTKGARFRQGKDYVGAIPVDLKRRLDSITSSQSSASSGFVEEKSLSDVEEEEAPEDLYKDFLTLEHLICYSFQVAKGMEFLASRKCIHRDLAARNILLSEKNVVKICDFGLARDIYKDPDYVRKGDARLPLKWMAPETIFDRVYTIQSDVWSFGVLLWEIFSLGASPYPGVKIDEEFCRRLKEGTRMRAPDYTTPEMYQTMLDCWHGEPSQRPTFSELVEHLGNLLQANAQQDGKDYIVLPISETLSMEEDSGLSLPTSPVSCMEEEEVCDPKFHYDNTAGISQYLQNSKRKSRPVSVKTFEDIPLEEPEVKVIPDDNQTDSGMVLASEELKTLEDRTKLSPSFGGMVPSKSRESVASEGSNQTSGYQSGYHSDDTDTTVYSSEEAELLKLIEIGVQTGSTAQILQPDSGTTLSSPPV
Chain of CDK5 complexed with p25 (Q00535 whole entry): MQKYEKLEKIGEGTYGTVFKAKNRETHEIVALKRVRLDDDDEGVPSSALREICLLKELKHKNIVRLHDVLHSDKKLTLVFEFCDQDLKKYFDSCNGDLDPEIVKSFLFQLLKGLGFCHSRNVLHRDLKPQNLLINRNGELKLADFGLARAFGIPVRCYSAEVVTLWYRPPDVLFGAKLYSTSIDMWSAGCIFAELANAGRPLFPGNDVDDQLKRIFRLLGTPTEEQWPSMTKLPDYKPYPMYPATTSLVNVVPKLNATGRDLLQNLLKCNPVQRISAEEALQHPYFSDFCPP
Chain of CDK5 complexed with p25 (Q15078 99-307 partner limits assumed): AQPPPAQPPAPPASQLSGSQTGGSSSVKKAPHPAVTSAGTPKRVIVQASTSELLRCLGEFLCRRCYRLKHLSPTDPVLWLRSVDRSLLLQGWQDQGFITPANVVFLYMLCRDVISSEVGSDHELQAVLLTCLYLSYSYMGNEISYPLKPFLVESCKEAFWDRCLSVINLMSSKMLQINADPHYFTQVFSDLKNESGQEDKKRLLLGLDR

`Nc1ccc(-c2cc(-c3ccc(O)cc3)ccc2O)nc1` [Example 48, 3-(5-Amino-pyridin-2-yl)-biphenyl-4,4′-diol]: the IC50 (at CDK5 complexed with p25; in test [1]) was < 500 nM in each case.
In the case of `Nc1cccc(-c2cc(-c3ccc(O)cc3)ccc2O)n1` [Example 49, 3-(6-Amino-pyridin-2-yl)-biphenyl-4,4′-diol], the IC50 (at CDK5 complexed with p25; in test [1]) was < 500 nM each time.
`COc1cc(-c2cc(-c3ccc(O)cc3)ccc2O)nc(N)n1` [Example 50, 3-(2-Amino-6-methoxy-pyrimidin-4-yl)-biphenyl-4,4′-diol]: the IC50 (at CDK5 complexed with p25; in test [1]) was < 500 nM throughout.
With `Nc1cnc(-c2cc(-c3ccc(O)cc3)ccc2O)nc1N` [Example 51, 3-(4,5-Diamino-pyrimidin-2-yl)-biphenyl-4,4′-diol], the IC50 (at CDK5 complexed with p25; in test [1]) was < 500 nM in each case.
In the case of `Nc1cc(-c2cc(-c3ccc(O)cc3)ccc2O)nc(N)n1` [Example 52, 3-(2,6-Diamino-pyrimidin-4-yl)-biphenyl-4,4′-diol], the IC50 (at CDK5 complexed with p25; in test [1]) was < 500 nM each time.
In the case of `Nc1nccc(-c2cc(-c3ccc(O)c(F)c3)ccc2O)n1` [Example 53, 3-(2-Amino-pyrimidin-4-yl)-3′-fluoro-biphenyl-4,4′-diol], the IC50 (at CDK5 complexed with p25; in test [1]) was < 500 nM in each case.
On to `Nc1nc(Cl)cc(-c2cc(-c3ccc(O)cc3)ccc2O)n1` [Example 54, 3-(2-Amino-6-chloro-pyrimidin-4-yl)-biphenyl-4,4′-diol], for which the IC50 (at CDK5 complexed with p25; in test [1]) was < 500 nM each time.
`Nc1nc(NCCO)cc(-c2cc(-c3ccc(O)cc3)ccc2O)n1` [Example 55, 3-[2-Amino-6-(2-hydroxy-ethylamino)-pyrimidin-4-yl]-biphenyl-4,4′-diol]: the IC50 (at CDK5 complexed with p25; in test [1]) was < 500 nM throughout.
Regarding `Nc1nc(NCC(O)CO)cc(-c2cc(-c3ccc(O)cc3)ccc2O)n1` (stereo not drawn) [Example 56, 3-[2-Amino-6-(2,3-dihydroxy-propylamino)-pyrmidin-4-yl]-biphenyl-4,4′-diol], the IC50 (on CDK5 complexed with p25; in test [1]) was < 500 nM throughout.
In the case of `Nc1nccc(-c2cc(-c3ccncc3)ccc2O)n1` [Example 62, 2-(2-Amino-pyrimidin-4-yl)-4-pyridin-4-yl-phenol], the IC50 (at CDK5 complexed with p25; in test [1]) was < 500 nM each time.
In the case of `Nc1nccc(-c2cc(-c3cccnc3)ccc2O)n1` [Example 63, 2-(2-Amino-pyrimidin-4-yl)-4-pyridin-3-yl-phenol], the IC50 on CDK5 complexed with p25 was < 500 nM; in test [1], > 5000 nM.
The like results for `Nc1cccc(-c2ccc(O)c(-c3ccnc(N)n3)c2)n1` [Example 64, 4-(6-Amino-pyridin-2-yl)-2-(2-amino-pyrimidin-4-yl)-phenol] were, in that order, < 500 nM and < 500 nM.
As to `Nc1ccc(-c2ccc(O)c(-c3ccnc(N)n3)c2)cn1` [Example 65, 4-(6-Amino-pyridin-3-yl)-2-(2-amino-pyrimidin-4-yl)-phenol], the values for the IC50 (on CDK5 complexed with p25; in test [1]) were 500 to 2000 nM and < 500 nM, respectively.
For `Nc1ncc(-c2ccc(O)c(-c3ccnc(N)n3)c2)cn1` [Example 66, 2-(2-Amino-pyrimidin-4-yl)-4-(2-amino-pyrimidin-5-yl)-phenol], the IC50 (on CDK5 complexed with p25; in test [1]) was 500 to 2000 nM each time.
In the case of `Nc1nccc(-c2ccc(O)c(-c3ccnc(N)n3)c2)n1` [Example 68, 2,4-Bis-(2-amino-pyrimidin-4-yl)-phenol], the IC50 (on CDK5 complexed with p25; in test [1]) was < 500 nM in each case.
As to `Nc1nccc(-c2cc(-c3ccc[nH]3)ccc2O)n1` [Example 69, 2-(2-Amino-pyrimidin-4-yl)-4-(1H-pyrrol-2-yl)-phenol], the IC50 (on CDK5 complexed with p25; in test [1]) was < 500 nM in each case.
On to `Nc1nccc(-c2cc(-c3c[nH]c(=O)[nH]c3=O)ccc2O)n1` [Example 70, 5-[3-(2-Amino-pyrimidin-4-yl)-4-hydroxy-phenyl]-1 H-pyrimidine-2.4-dione], for which the results for the IC50 (on CDK5 complexed with p25; in test [1]) were 2000 to 5000 nM and > 5000 nM, respectively.
As for `Nc1cccc(-c2cc(-c3ccnc(N)n3)ccc2O)n1` [Example 71, 2-(2-Aminopyridin-6-yl)-4-(2-aminopyrimidin-4-yl)-phenol], the IC50 (at CDK5 complexed with p25; in test [1]) was < 500 nM throughout.
`Nc1nc(NCCCCCO)cc(-c2cc(-c3ccc(O)cc3)ccc2O)n1` [Example 77, 3-[2-Amino-6-(5-hydroxy-pentylamino)-pyrimidin-4-yl]-biphenyl-4,4′-diol]: the IC50 (on CDK5 complexed with p25; in test [1]) was < 500 nM each time.
For `Nc1nc(-c2cc(-c3ccc(O)cc3)ccc2O)cc(N2CCNCC2)n1` [Example 78, 3-(2-Amino-6-piperazin-1-yl-pyrimidin-4-yl)-biphenyl-4,4′-diol], the IC50 on CDK5 complexed with p25 is < 500 nM; in test [1] it was > 5000 nM.
The corresponding values for `Nc1nc(-c2cc(-c3ccc(O)cc3)ccc2O)cc(N2CCCC(CO)C2)n1` (stereo not drawn) [Example 82, 3-[2-Amino-6-(3-hydroxymethyl-piperidin-1-yl)-pyrimidin-4-yl]-biphenyl-4,4′-diol] are < 500 nM and < 500 nM.
Take `Nc1nc(N[C@@H](CO)c2ccccc2)cc(-c2cc(-c3ccc4[nH]ccc4c3)ccc2O)n1` [Example 93, 2-[2-Amino-6-(2-hydroxy-1 R-phenyl-ethylamino)-pyrimidin-4-yl]-4-(1H-indol-5-yl)-phenol]: on KDR, the IC50 was < 1000 nM.
`Nc1cccc(-c2ccc(O)c(-c3ccnc(N)n3)c2)c1` [Example 94, 3′-Amino-3-(2-amino-pyrimidin-4-yl)-biphenyl-4-ol]: the IC50 at KDR lay in the range of 1000 to 20000 nM.
On to `CC(C)(C)OC(=O)n1cccc1-c1ccc(O)c(-c2ccnc(N)n2)c1` [Example 95, 2-[3-(2-Amino-pyrimidin-4-yl)-4-hydroxy-phenyl]-pyrrole-1-carboxylic acid t-butyl ester], for which the IC50 against KDR lay in the range of 1000 to 20000 nM.
Consider `Nc1nc(N[C@@H](CO)Cc2c[nH]c3ccccc23)cc(-c2cc(-c3ccc(O)cc3)ccc2O)n1` [Example 96, 3-{2-Amino-6-[2-hydroxy-1R-(1H-indol-3-ylmethyl)-ethylamino]-pyrimidin-4-yl}-biphenyl-4,4′-diol], for which the IC50 against KDR lay within 1000 to 20000 nM.
On the same count and under the same terms, next, `Nc1nc(N[C@H](CO)c2ccccc2)cc(-c2cc(-c3ccc(O)cc3)ccc2O)n1` [Example 97, 3-[2-Amino-6-(2-hydroxy-1S-phenyl-ethylamino)-pyrimidin-4-yl]-biphenyl-4,4′-diol]: < 1000 nM; `COc1ccc(Nc2cc(-c3cc(-c4ccc(O)cc4)ccc3O)nc(N)n2)cc1` [Example 98, 3-[2-Amino-6-(4-methoxy-phenylamino)-pyrimidin-4-yl]-biphenyl-4,4′-diol]: < 1000 nM.
Still for that read-out and setting: the result for `Nc1nc(N[C@H](CO)CSCc2ccccc2)cc(-c2cc(-c3ccc(O)cc3)ccc2O)n1` [Example 99, 3-[2-Amino-6-(2-benzylsulfanyl-1R-hydroxymethyl-ethylamino)-pyrimidin-4-yl]-biphenyl-4,4′-diol] reads < 1000 nM.
Still for that read-out and setting: the result for `Nc1nc(NCCc2c[nH]c3ccccc23)cc(-c2cc(-c3ccc(O)cc3)ccc2O)n1` [Example 100, 3-{2-Amino-6-[2-(1-indol-3-yl)-ethylamino]-pyrimidin-4-yl} biphenyl-4,4′-diol] reads < 1000 nM.
`Nc1nc(-c2cc(-c3ccc(O)cc3)ccc2O)cc(N2CCN(Cc3ccccc3)CC2)n1` [Example 101, 3-[2-Amino-6-(4-benzyl-piperazin-1-yl)-pyrimidin-4-yl]-biphenyl-4,4′-diol] showed an IC50 against KDR of 1000 to 20000 nM.
On to `Nc1nc(N[C@@H](CO)Cc2c[nH]c3ccccc23)cc(-c2cc(-c3ccc(O)cc3)ccc2O)n1` [Example 102, 3-{2-Amino-6-[2-hydroxy-1R-(1 H-indol-3-ylmethyl)-ethylamino]-pyrimidin-4-yl}-biphenyl-4,4′-diol], for which the IC50 against KDR lay in the range of 1000 to 20000 nM.
Same read-out and setting: the result for `CC(C)[C@@H](CO)Nc1cc(-c2cc(-c3ccc(O)cc3)ccc2O)nc(N)n1` [Example 103, 3-[2-Amino-6-(I -hydroxymethyl-2-methyl-propylamino)pyrimidin-4-yl]-biphenyl-4.4′-diol] reads 1000 to 20000 nM; that for `CN1CCN(c2cc(-c3cc(-c4ccc(O)cc4)ccc3O)nc(N)n2)CC1` [Example 104, 3-[2-Amino-6-(4-methyl-piperazin-1-yl)-pyrimidin-4-yl]-biphenyl-4.4′-diol], 1000 to 20000 nM.
